The structures appear in SMILES notation.

For `Cc1nc2c(c(C)c1CC(=O)O)c(=O)[nH]n2C`, the melting point is 239 to 241 °C. `COC(=O)CCNc1ccncc1[N+](=O)[O-]` came in with a melting point of 93 to 95 °C.

In the case of `CC(C)(C)c1nn(Cc2ccccc2)cc1C=O`, the melting point was 64 to 66 °C.

The compound `Nc1cccnc1Nc1ccccc1` registered a melting point of 135 to 137 °C. `Cc1ccc(C(C)O)cc1[N+](=O)[O-]` (stereo not drawn) showed a melting point of 48 to 50 °C. `CC(=O)Nc1ccc(CO)cc1` gave a melting point of 117 to 119 °C. `Cc1ccc(C2(C(=O)O)CCOCC2)cc1` gave a melting point of 189 to 191 °C. In the case of `ClCc1ncc(-c2ccccc2)s1`, the melting point was 39 to 41 °C. Compound `NC(=NO)c1ccnc(N2CCCCC2)c1` displayed a melting point of 179 to 181 °C. In the case of `Cc1c(C(=O)O)ccc2cnc(C3CC3)n12` it was 204 to 206 °C; in that of `CN1CCN(S(N)(=O)=O)C(c2ccccc2)C1` (stereo not drawn), 109 to 111 °C; in that of `CC(C)(C)C1CCc2sc(C(=O)O)cc2C1` (stereo not drawn), 169 to 171 °C.

In turn, `CC(=O)c1ccc(OCc2nccn2C)cc1` displayed a melting point of 106 to 108 °C. The result for `N#Cc1cc2c(nc1N)CCC2` reads 205 to 207 °C; that for `O=CC1=Cc2c(ccc3ccccc23)OC1`, 144 to 146 °C; that for `Cc1sc(N)nc1-c1ccc(Cl)cc1`, 146 to 148 °C.

Regarding `CC1=NN(c2ccc(Br)cc2)C(=O)C1`, the melting point lay within 164 to 166 °C. `CC(Sc1ccc(C#N)cc1)C(=O)O` (stereo not drawn): the melting point was in the range of 114 to 116 °C. With `N#Cc1cnc(-c2ccccc2)nc1`, the melting point was in the range of 189 to 191 °C. `COc1ccc2nc(C3CC3)cc(C(=O)O)c2c1` displayed a melting point of 219 to 221 °C. The result for `Cn1ncc2c(=O)[nH]c(CCl)nc21` reads 232 to 234 °C; that for `O=C(O)C1(c2cccc(C(F)(F)F)c2)CCCCC1`, 144 to 146 °C. With `CN1C(=O)Cc2cc(C(=O)CCl)ccc21`, the melting point fell in the range of 199 to 201 °C. `CC(C)c1nc(I)c2ccccn12`: the melting point was 84 to 86 °C. In the case of `CC(=O)Nc1ccc(C(=O)CCl)c(F)c1` it was 128 to 130 °C; in that of `CC(C)(C)n1cc(C(=O)O)c(Br)n1`, 163 to 165 °C. `Cc1cc(N)n(CCC#N)n1` showed a melting point of 104 to 106 °C. In the case of `CCOC(=O)c1c(CCCO)cnc2c(C#N)cnn12` it was 94 to 96 °C; in that of `NC(=O)CNCc1ccccc1`, 90 to 92 °C. On to `N#CCC(=O)c1cccc(Br)c1`, for which the melting point lay within 94 to 96 °C. In the case of `Cc1ccc(Cc2cnc(N)s2)cc1` it was 142 to 144 °C.

Turning to `CNCc1ccc(OC)c(O)c1`, the melting point lay in the range of 141 to 143 °C.

`Cc1cc(-c2nc(C)cs2)c(=O)[nH]n1` displayed a melting point of 267 to 269 °C. In the case of `O=C(O)CCCCCCN1C(=O)C=CC1=O` it was 79 to 81 °C; in that of `CC(=O)Nc1cccc(NC(=O)C(Br)C(C)C)c1` (stereo not drawn), 179 to 181 °C; in that of `O=C(O)c1cccc(Oc2cccc(Cl)c2)n1`, 96 to 98 °C. In the case of `O=C1CNCCN1Cc1ccc(Cl)cc1` it was 83 to 85 °C. `Cc1ccc(Sc2nc(=N)s[nH]2)cc1` returned a melting point of 181 to 183 °C. In the case of `CC(CN(C)C(=O)OC(C)(C)C)C(N)=NO` (stereo not drawn), the melting point is 124 to 126 °C.

As for `Cc1sc(N=CN(C)C)c(C#N)c1C`, the melting point was 117 to 119 °C. `COc1cc(C(=O)O)ccc1OC(C)C` returned a melting point of 140 to 142 °C. As for `CC(C)Oc1ccc(N)cc1C#N`, the melting point lay within 39 to 41 °C. In the case of `O=C(O)C1CC(=O)N(c2ccc(F)cc2)C1` (stereo not drawn) it was 121 to 123 °C; in that of `CC(c1ccco1)N(C(=O)CCl)c1ccccn1` (stereo not drawn), 87 to 89 °C. In the case of `Nc1cc(Cl)c(OCC(F)(F)F)c(Cl)c1` it was 89 to 91 °C; in that of `Clc1sc2ccccc2c1Cl`, 53 to 55 °C. The result for `CN(C)c1nnc(S)s1` reads 178 to 180 °C; that for `CN(C)C(=O)CO`, 32 to 34 °C; that for `O=Cc1cccc2cn[nH]c12`, 121 to 123 °C. Take `O=C1NC(=O)N(C2CCS(=O)(=O)C2)C1=O` (stereo not drawn): the melting point is 244 to 246 °C. In the case of `COCC(C)n1c(SCC(=O)O)nnc1-c1ccccc1` (stereo not drawn) it was 139 to 141 °C; in that of `COC(=O)c1c(Cl)ncnc1Cl`, 50 to 52 °C; in that of `O=C(O)c1ccccc1SCCO`, 125 to 127 °C.

In turn, `OCc1nnnn1-c1ccccc1` gave a melting point of 100 to 102 °C. The result for `N#Cc1cc(C(F)(F)F)ccc1C(=O)O` reads 113 to 115 °C.

`N#Cc1ccc(OCC(=O)O)cc1` returned a melting point of 177 to 179 °C. `COc1ncc(Br)cc1CC#N` showed a melting point of 39 to 41 °C. The result for `CCOc1ccc(C(=O)NN)cc1OC` reads 161 to 163 °C.

`NC(=O)c1ccc(N)nn1` gave a melting point of 256 to 258 °C. As for `O=c1[nH]nnn1-c1cccs1`, the melting point was in the range of 151 to 153 °C. In the case of `Nc1cccc(-c2ncco2)c1` it was 61 to 63 °C; in that of `COc1ccc2c(c1)OCC2CC(=O)O` (stereo not drawn), 94 to 96 °C. Compound `O=c1[nH]cnc2cc(F)c([N+](=O)[O-])cc12` had a melting point of 292 to 294 °C. `CN(C)C(=O)Sc1cnn(-c2ccccc2F)c1` yielded a melting point of 65 to 67 °C.

As to `CC(C)(C)OC(=O)NC1CCCN(Cc2ccccc2)C1` (stereo not drawn), the melting point is 118 to 120 °C. The result for `COCCOc1ccc(Cl)cc1C(=O)O` reads 68 to 70 °C. The result for `Nn1cnc2c(cnn2-c2ccccc2)c1=O` reads 233 to 235 °C; that for `O=C(Nc1ccc2c(c1)OCCO2)OCC(F)(F)F`, 103 to 105 °C. As to `O=C(O)C1CCN(S(=O)(=O)c2cccc(C(F)(F)F)c2)CC1`, the melting point lay in the range of 135 to 136 °C.

The compound `CCC1CCc2[nH]c(=O)c(C#N)cc2C1` (stereo not drawn) returned a melting point of 224 to 226 °C. `CNC(=O)c1cccc(CCN)c1` had a melting point of 110 to 112 °C. As to `O=Cc1cccc(Br)c1OC(F)F`, the melting point was in the range of 49 to 51 °C.

`O=C(O)CSc1nccs1` gave a melting point of 151 to 153 °C. In the case of `Nc1nnc2ccc(Cl)nn12` it was 274 to 276 °C; in that of `CC(=O)Nc1cc2ccccc2cc1C(=O)O`, 190 to 192 °C.

As for `ON=Cc1ccccc1OCc1cn2ccccc2n1`, the melting point lay within 197 to 199 °C.

The compound `CN1CC(=O)NC(=O)C1` had a melting point of 99 to 101 °C. In the case of `Cc1[nH]c(=O)[nH]c(=O)c1CCC(=O)O` it was 306 to 308 °C; in that of `Cc1cc(Br)cc2cc(C(=O)O)oc12`, 222 to 224 °C.

Consider `O=C(O)C1CCN(C(=O)CCc2ccccc2)CC1`, for which the melting point lay within 107 to 109 °C. In the case of `NC(C(=O)O)c1cc(F)ccc1F` (stereo not drawn) it was 229 to 231 °C; in that of `CC(C)NC(=O)Cc1ccc(N)cc1`, 153 to 155 °C; in that of `O=C(O)c1cccc(CSc2c(Cl)cccc2Cl)c1`, 222 to 224 °C.

`CC(C)S(=O)(=O)c1ccc(F)c(C(=O)O)c1` yielded a melting point of 139 to 141 °C.

Compound `NNC(=O)CCc1ccco1` gave a melting point of 72 to 74 °C. The result for `Nc1ccc(CCCC(=O)O)cc1` reads 121 to 124 °C; that for `O=S(=O)(c1ccc2c(c1)CCCN2)N1CCCC1`, 130 to 132 °C. The result for `Nc1ccc(NC(=O)c2ccco2)cc1C(F)(F)F` reads 120 to 122 °C; that for `N#Cc1cc(Cl)nc2ccc(Cl)cc12`, 168 to 170 °C. In turn, `COC(=O)c1cc(Cl)c2ccccc2n1` registered a melting point of 121 to 123 °C. Compound `NNC(=O)Cc1cn2ccsc2n1` displayed a melting point of 97 to 101 °C. The compound `O=C(O)c1sccc1S(=O)(=O)N1CCCCC1` returned a melting point of 111 to 113 °C. In the case of `Nc1cccc(CN2CCSCC2)c1`, the melting point is 87 to 89 °C. The result for `Nc1ccc(S(=O)(=O)Nc2ccc(Cl)cc2)cc1N` reads 146 to 150 °C; that for `O=C(CCl)Nc1cccnc1`, 179 to 181 °C. The result for `Cc1cc(-c2csc(N)n2)c(C)s1` reads 72 to 74 °C.

Turning to `Cc1cccc(N2CCN(c3ccc(C#N)cn3)CC2)c1`, the melting point lay in the range of 121 to 123 °C. The result for `O=C(O)c1cc2c(s1)-c1ccccc1CC2` reads 212 to 214 °C.

In turn, `O=C(Nc1ccc(O)cc1)c1cccs1` had a melting point of 166 to 168 °C. The compound `CC(C)(C)OC(=O)N1CCCc2cccc(O)c21` yielded a melting point of 60 to 62 °C.

`CCOC(=O)c1c(NC(N)=S)sc(C)c1C` had a melting point of 207 to 209 °C. In the case of `c1ccc(-c2ncc[nH]2)nc1` it was 133 to 135 °C; in that of `N#Cc1ccccc1OCc1ccccc1`, 70 to 72 °C; in that of `CC1CC(C)CN(C(=O)c2ccccc2N)C1` (stereo not drawn), 97 to 99 °C. The result for `O=C(CBr)c1ccc(S(=O)(=O)N2CCCCCC2)cc1` reads 70 to 72 °C.

The compound `ClCc1csc(COc2ccc(Cl)cc2)n1` came in with a melting point of 75 to 77 °C. `Nc1ccc(Cl)cc1C(=O)c1ccc[nH]1` gave a melting point of 149 to 151 °C.

Compound `N#Cc1cc(CBr)ccc1F` had a melting point of 44 to 46 °C. The result for `CN(C)C(=O)COc1ccc(N)c(F)c1` reads 106 to 108 °C; that for `Cc1ccc(-n2c(S)nnc2-c2ccccn2)c(C)c1`, 234 to 236 °C; that for `O=C(O)Cc1ccc(NC(=O)c2cccc(Br)c2)cc1`, 246 to 248 °C. On to `O=C(O)COc1ccc(F)cc1Cl`, for which the melting point was in the range of 140 to 142 °C. In the case of `CCCS(=O)(=O)Nc1ccccc1C(C)NC` (stereo not drawn) it was 58 to 60 °C; in that of `O=C(O)Cc1cc2ccccc2o1`, 89 to 91 °C; in that of `O=C(NCCc1ccccc1)n1ccnc1`, 103 to 105 °C. The result for `O=C1CCc2cc(C(=O)O)ccc2N1` reads 261 to 263 °C. Compound `CC(C)OCc1c(C(=O)O)oc2ccccc12` came in with a melting point of 131 to 133 °C.

`CSc1c[nH]nc1N` registered a melting point of 76 to 78 °C. As to `Cc1cc(OC(C)C(=O)O)ccc1C(C)C` (stereo not drawn), the melting point lay in the range of 92 to 94 °C. In turn, `CCn1cnnc1-c1ccc(C(=O)O)cc1` came in with a melting point of 211 to 213 °C. In the case of `O=[N+]([O-])c1ccc(Br)c2ccncc12` it was 134 to 136 °C; in that of `O=C(O)c1ccc(Oc2ccccc2Br)nc1`, 182 to 184 °C; in that of `NC(=S)c1cc([N+](=O)[O-])ccc1N`, 171 to 173 °C.

(Values after a melting point compilation (Tetko et al.).)
